Data: the supplement of paper PMC10307832

Assays:
Experiment in all cases: relative viability (nuclei count vs DMSO), 5 days (fraction); higher = more cells survive
[1] = compound: C1COCCN1CC2=CC(=O)C(=CO2)OCCCCCSC3=C4C=CC(=CC4=NC=C3)C(F)(F)F [EHT 1864] + CCNC(=O)c1noc(-c2cc(C(C)C)c(O)cc2O)c1-c1ccc(CN2CCOCC2)cc1 [Luminespib] (partner 0.01 µM)
Outline: (§1)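 Dosing by pin tool came one day after lung cancer cell lines were seeded in 1536-well plates, using either one drug or a fixed anchor-drug dose plus five library-drug doses (not always all listed) in √10 steps. After 5 days, nuclei were counted on 4× images. Relative viability is treated-well nuclei count divided by vehicle-well nuclei count, and values are medians of duplicate plates.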

[2] = compound: C1COCCN1CC2=CC(=O)C(=CO2)OCCCCCSC3=C4C=CC(=CC4=NC=C3)C(F)(F)F [EHT 1864] + COc1cccc2cc(-c3nc([C@H]4CC[C@H](C(=O)O)CC4)n4ncnc(N)c34)[nH]c12 [OSI-027] (partner 0.5 µM)
Outline: as §1

[3] = compound: C1COCCN1CC2=CC(=O)C(=CO2)OCCCCCSC3=C4C=CC(=CC4=NC=C3)C(F)(F)F [EHT 1864] + CS(=O)(=O)CCNCc1ccc(-c2ccc3ncnc(Nc4ccc(OCc5cccc(F)c5)c(Cl)c4)c3c2)o1 [Lapatinib] (partner 2 µM)
Outline: as §1

[4] = compound: C1COCCN1CC2=CC(=O)C(=CO2)OCCCCCSC3=C4C=CC(=CC4=NC=C3)C(F)(F)F [EHT 1864] + C[C@]1(O)C[C@@H](c2nc(-c3ccc4ccc(-c5ccccc5)nc4c3)c3c(N)nccn32)C1 [Linsitinib] (partner 1 µM)
Outline: as §1

Cell Line | relative viability ([1]; first compound 0.04 µM) | relative viability ([1]; first compound 0.1265 µM) | relative viability ([1]; first compound 0.4 µM) | relative viability ([1]; first compound 1.265 µM) | relative viability ([1]; first compound 4 µM) | relative viability ([2]; first compound 0.04 µM) | relative viability ([2]; first compound 0.1265 µM) | relative viability ([2]; first compound 0.4 µM) | relative viability ([2]; first compound 1.265 µM) | relative viability ([2]; first compound 4 µM) | relative viability ([3]; first compound 0.04 µM) | relative viability ([3]; first compound 0.4 µM) | relative viability ([3]; first compound 1.265 µM) | relative viability ([3]; first compound 4 µM) | relative viability ([4]; first compound 0.04 µM) | relative viability ([4]; first compound 0.4 µM) | relative viability ([4]; first compound 1.265 µM) | relative viability ([4]; first compound 4 µM) | relative viability ([3]; first compound 0.1265 µM) | relative viability ([4]; first compound 0.1265 µM)
NCI-H358 | 0.302 | 0.398 | 0.313 | 0.469 | 0.414 | 0.842 | 0.745 | 0.863 | 0.799 | 0.685 | 0.477 | 0.441 | 0.413 | 0.434 | 0.759 | 0.738 | 0.794 | 0.639 |  | 
SK-LU-1 | 0.184 | 0.181 | 0.214 | 0.229 | 0.219 | 0.357 | 0.262 | 0.32 | 0.33 | 0.312 | 0.91 | 0.795 | 0.878 | 0.781 | 1.09 | 0.95 | 1.11 | 1.12 | 0.65 | 1
BEN | 0.264 | 0.17 | 0.527 | 0.333 | 0.533 | 0.303 | 0.278 | 0.297 | 0.299 | 0.302 | 0.811 | 0.671 | 0.556 | 0.666 | 0.862 | 0.879 | 0.851 | 0.985 | 0.638 | 0.801
LC-2-ad | 1.12 |  | 0.912 | 1 | 0.951 | 0.808 |  | 1 | 0.98 | 0.788 | 0.993 | 0.954 | 0.904 | 0.835 | 0.862 | 0.806 | 0.804 | 0.79 |  | 
COR-L23 | 0.699 | 0.528 | 0.613 | 0.642 | 0.494 | 0.821 | 0.467 | 0.647 | 0.796 | 0.747 | 0.975 | 0.86 | 0.825 | 0.889 | 0.94 | 0.942 | 0.949 | 0.873 | 0.814 | 0.921
RERF-LC-KJ | 1.34 | 1.02 | 1.17 | 1.29 | 1.06 | 0.621 | 0.539 | 0.52 | 0.575 | 0.541 | 0.916 | 0.925 | 0.798 | 0.854 | 0.874 | 0.861 | 0.861 | 0.847 | 0.913 | 0.884
NCI-H1915 | 0.8 |  | 0.733 | 0.577 | 0.791 | 0.657 |  | 0.641 | 0.599 | 0.545 | 1.03 | 0.993 | 0.937 | 0.902 | 1.13 | 1.04 | 1.1 | 1.08 |  | 
NCI-H596 | 0.953 | 0.986 | 1.03 | 0.972 | 1.05 | 0.716 | 0.651 | 0.803 | 0.572 | 0.529 | 1.16 | 1.12 | 1.01 | 1.09 | 1.06 | 0.989 | 0.906 | 0.964 | 0.968 | 1.11
NCI-H2009 | 1 | 0.926 | 0.979 | 0.913 | 0.789 | 0.594 | 0.521 | 0.677 | 0.62 | 0.511 | 0.77 | 0.921 | 0.963 | 0.824 | 1.15 | 1.17 | 1.24 | 0.897 | 0.749 | 1.2
NCI-H2126 | 0.796 | 0.902 | 0.906 | 0.879 | 0.866 | 0.738 | 0.667 | 0.729 | 0.74 | 0.725 | 0.779 | 0.759 | 0.798 | 0.697 | 0.733 | 0.746 | 0.726 | 0.72 | 0.723 | 0.691
LXF-289 | 0.739 | 0.544 | 0.689 | 0.657 | 0.647 | 0.848 | 0.738 | 0.769 | 0.775 | 0.713 | 0.883 | 0.883 | 0.851 | 0.799 | 0.926 | 0.883 | 0.898 | 0.821 | 0.821 | 0.929
NCI-H1563 | 0.497 | 0.503 | 0.556 | 0.54 | 0.553 | 0.735 | 0.796 | 0.763 | 0.701 | 0.699 | 1.01 | 0.953 | 0.949 | 0.813 | 1.17 | 1.24 | 1.17 | 0.94 | 0.986 | 1.3
HCC-44 | 1.04 | 0.906 | 0.924 | 1.02 | 1.33 | 0.573 | 0.383 | 0.525 | 0.522 | 0.575 | 1.04 | 0.955 | 1.05 | 0.965 | 0.692 | 0.598 | 0.642 | 0.621 | 0.822 | 0.58
PC-14 | 0.121 |  | 0.199 | 0.196 | 0.143 | 0.813 | 0.75 | 0.814 | 1.05 | 0.88 | 0.316 | 0.325 | 0.294 | 0.272 | 0.955 | 0.954 | 0.985 | 0.99 | 0.28 | 0.973
HOP-62 | 0.932 |  | 0.765 | 0.798 | 0.982 | 0.783 |  | 0.851 | 0.825 | 0.907 | 1.07 | 1.01 | 1.09 | 1.18 | 1.13 | 0.865 | 0.943 | 1.03 |  | 
SK-MES-1 | 0.596 | 0.64 | 0.748 | 0.726 | 0.798 | 0.628 | 0.542 | 0.572 | 0.592 | 0.562 | 0.469 | 0.517 | 0.439 | 0.443 | 1.06 | 1.17 | 1.16 | 1.09 | 0.48 | 1.06
NCI-H1793 | 0.143 |  | 0.141 |  | 0.178 | 0.226 |  | 0.313 |  | 0.262 |  | 0.667 | 0.602 | 0.638 |  | 0.888 | 0.696 | 0.984 | 0.543 | 0.775
